{"source": "patent US20060030017A1", "about": "“Three-dimensional structure of c-Abl” (priority 2004, published 2006)", "molecular_target": "T1, c-Abl protein tyrosine kinase (Homo sapiens, UniProt P00519)", "T1 construct": "c-Abl Kinase Fragment, Amino Acids 218-500; Factor Xa cleavage site (IEGR) (N); made in house; host or cells: baculovirus / Sf9 insect cells", "T1 sequence (P00519 with tags, fused parts or gaps)": "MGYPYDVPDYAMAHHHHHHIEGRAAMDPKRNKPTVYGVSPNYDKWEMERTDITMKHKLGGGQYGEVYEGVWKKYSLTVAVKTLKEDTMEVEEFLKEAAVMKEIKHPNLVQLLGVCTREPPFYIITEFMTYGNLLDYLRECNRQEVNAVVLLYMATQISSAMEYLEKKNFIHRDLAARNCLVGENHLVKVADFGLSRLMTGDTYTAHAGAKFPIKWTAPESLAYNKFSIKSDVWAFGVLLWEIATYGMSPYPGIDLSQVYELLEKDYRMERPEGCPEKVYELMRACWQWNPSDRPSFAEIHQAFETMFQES", "assay": "c-Abl protein tyrosine kinase filter binding assay ([32P]-ATP, Poly-AEKY substrate)", "assay_type": "biochemical", "details": "hit from HTD; in vitro confirmation test described, IC50 not given", "method": "The top scoring poses are evaluated interactively using molecular graphics to select those compounds which formed favorable intermolecular hydrogen bonds and van der Waals interactions with the c-Abl kinase receptor model, as well as to eliminate compounds containing cis-amides and non-aromatic tautomers. Compounds are also selected for desirable drug-like properties, such as size, lipophilicity and chemical stability. The resulting “hit” compounds are confirmed as leads for drug optimization, by their in vitro evaluation in a test for activity against c-Abl protein tyrosine kinase. The test is conducted as a filter binding assay as follows: The His-tagged kinase domain of c-Abl is cloned and expressed in the baculovirus/Sf9 system. See Bhat et al., J Biol Chem, Vol. 27, pp. 16170-16175 (1997). […] Membranes are counted after drying at ambient temperature, mounting in Packard TopCount 96-well frame, and addition of 10 μL/well of Microscint™ (Packard). The activity of the compounds is quantified as IC50 and IC90 values, as determined from their dose response curves by graphical extrapolation. Thus, IC50 values are determined by linear regression analysis of the percentages for the inhibition of each compound in at least four concentrations (as a rule 0.01, 0.1, 1.0 and […]).", "data": [{"smiles": "COc1cccc(-n2cc(-c3cccc(OCCNCCO)c3)c3ncnc(N)c32)c1", "note": "[2-[[2-[3-[4-amino-5-(3-methoxyphenyl)-5H-pyrrolo[3,2-d]pyrimidin-7-yl]phenoxy]ethyl]amino]-ethanol]", "values": [{"measurement": "inhibition of c-Abl kinase (hit identified by virtual screening)", "result": "specific inhibitors of c-Abl kinase"}]}]}
